System: NIH 3T3 fibroblasts
Conditions: read-out: IC50 (cytotoxicity); 24 hours, MTS
Description: In vitro cytotoxicity of the photoinitiator and the gel were tested using NIH 3T3 fibroblasts cultured in Dulbecco's Modified Eagle's Medium (DMEM) containing 10% fetal bovine serum and 1% penicillin-streptomycin. Cells were seeded in either 96 well plates or 12 well plates at a density of 2,500 cells/well or 25,000 cells/well, respectively, and allowed to adhere overnight. Photoinitiator solutions and the gel solution were sterile filtered using a 0.22 um filter prior to testing in vitro. The gel solution was then gelled within the biosafety cabinet using the 150 W halogen lamp and co-cultured with the cells utilizing a 3 μm pore size transwell insert. Cells were incubated with treatments for 24 hours and then viability was measured using an MTS (3-(4,5-dimethyltriazol-2-yl)-5-(3-carboxymethoxyphenyl)-2-(4-sulfophenyl)-2H-tratrazolium, inner salt) assay (CellTiter 96® AQueous One, Promega). Cell viabilities were normalized to control untreated cells.

Molecule `O=C(O)c1ccccc1-c1c2cc(Br)c(=O)c(Br)c-2oc2c(Br)c(O)c(Br)cc12` [photoinitiator, Eosin Y] has an IC50 of about 223 µM.

From US20230039987A1, “GEL COMPOSITIONS, SYSTEMS, AND METHODS” (Boston Scientific Scimed, Inc., priority 2021, published 2023)
